Laboratory results as given in patent US8455491B2, “6-cycloamino-3-(pyridazin-4-yl)imidazo[1,2-b]pyridazine and derivatives and pharmaceutical compositions comprising the same” (Sanofi, priority 2007, dated 2013).

Test system: Mper1-luc Rat-1 (P2C4) fibroblasts
Experiment: Circadian cell assay (mPer1-luciferase reporter, period prolongation)
Format: cell-based
Conditions: effective concentration that induced a 1-hour prolongation of the circadian period, interpolated from hyperbolic curve
Procedure: Experimental Protocols for Circadian Cell Assay
Mper1-luc Rat-1 (P2C4) fibroblast cultures were prepared by dividing the cultures every 3-4 days (approximately 10-20% of confluence) on 150 cm^2 degassed polystyrene tissue culture flasks (Falcon® #35-5001) and maintained in growth medium [EMEM (Cellgro #10-010-CV); 10% fetal bovine serum (FBS; Gibco #16000-044); and 50 I.U./ml of penicillin-streptomycin (Cellgro #30-001-CI)] at 37° C. and under 5% CO2.
Cells obtained from Rat-1 fibroblast cultures at 30-50% of confluence as described above were co-transfected with vectors containing the selection marker for resistance to zeocin for a stable transfection and a luciferase reporter gene controlled by the mPer-1 promoter. After 24 to 48 hours, the cultures were divided on 96-well plates and maintained in growth medium supplemented with 50-100 μg/ml of zeocin (Invitrogen® #45-0430) for 10-14 days. The zeocin-resistant stable transfectants were evaluated for the expression of the reporter by adding 100 μM lucerfin (Promega® #E1603®) to the growth medium and by assaying the luciferase activity on a TopCount® scintillation counter (Packard Model #C384V00). The Rat-1 cell clones expressing both zeocin resistance and lucerifase activity controlled by mPer1 were serum-shock synchronized with 50% horse serum [HS (Gibco® #16050-122)] and the activity of the circadian reporter was evaluated. The P2C4 clone of Mper1-luc Rat-1 fibroblasts was selected to test the compound.
Mper1-luc Rat-1 (P2C4) fibroblasts at 40-50% of confluence, obtained according to the protocol described above, were plated out onto 96-well opaque tissue culture plates (Perkin Elmer® #6005680). The cultures are maintained in growth medium supplemented with 100 μg/ml of zeocin (Invitrogen #45-0430) until they reach 100% of confluence (48-72 h). The cultures were then synchronized with 100 μl of synchronization medium [EMEM (Cellgro #10-010-CV); 100 I.U./ml of penicillin-streptomycin (Cellgro #30-001-C1); 50% HS (Gibco #16050-122)] for 2 hours at 37° C. and under 5% CO2. After synchronization, the cultures were rinsed with 100 μl of EMEM (Cellgro #10-010-CV) for 10 minutes at ambient temperature. […]
The period analysis was performed either by determining the interval between the relative light emission minima over several days or by Fourier transform. […] The data were analyzed by adjusting a hyperbolic curve to the data expressed as change of period (y-axis) as a function of the concentration of the test compound (x-axis) in the XLfit™ software and the CE Delta (t+1 h) was interpolated from this curve.

Q: Which “CE Delta (t + 1 h)” value does the source give for `CN1CCN(c2ccc3nc(-c4ccc(F)cc4)c(-c4ccnnc4)n3n2)CC1` [compound 5, 2-(4-fluorophenyl)-6-(4-methylpiperazin-1-yl)-3-pyridazin-4-yl-imidazo[1,2-b]pyridazine] here?
A: 5 nM
